Experimental data from ChEMBL document CHEMBL3872204, “Synthesis and immunopotentiating activity of novel isoxazoline functionalized coumarins” (Eur J Med Chem, 2016).
Active and inactive are the calls of the source. No cut-off for these calls is given here.

Experiments:
Splenic lymphocyte [1] = assay: Immunopotentiating activity in splenic lymphocytes (unknown origin) assessed as effect on proliferation by measuring cell viability at 10 ug/ml pretreated followed by incubation of lymphocytes with LPS for 48 hrs by MTT assay; format: functional, cell-based
Splenic lymphocyte [2] = assay: Immunopotentiating activity in splenic lymphocytes (unknown origin) assessed as effect on proliferation by measuring cell viability at 0.1 to 1 ug/ml pretreated followed by incubation of lymphocytes with ConA for 48 hrs by MTT assay; format: functional, cell-based
Splenic lymphocyte [3] = assay: Immunopotentiating activity in splenic lymphocytes (unknown origin) assessed as effect on proliferation by measuring cell viability at 10 ug/ml pretreated followed by incubation of lymphocytes with ConA for 48 hrs by MTT assay; format: functional, cell-based
Splenic lymphocyte [4] = assay: Immunopotentiating activity in splenic lymphocytes (unknown origin) assessed as effect on proliferation by measuring cell viability at 0.1 to 1 ug/ml pretreated followed by incubation of lymphocytes with LPS for 48 hrs by MTT assay; format: functional, cell-based
Mus musculus [5] = assay: Immunopotentiating activity in sheep RBC-immunized BALB/c mouse assessed as B-cell activation by measuring IgM antibody titer in serum at 0.1 mg/kg, po for 14 days measured on day 7 post dose by hemagglutinination technique; format: functional, organism-based
Mus musculus [6] = assay: Immunopotentiating activity in sheep RBC-immunized BALB/c mouse assessed as increase in macrophage production by measuring increase in NO production administered orally for 14 days followed by incubation with LPS for 48 hrs by Griess assay; format: functional
Mus musculus [7] = assay: Immunopotentiating activity in sheep RBC-immunized BALB/c mouse assessed as B-cell activation by measuring IgG antibody titer in serum at 0.1 mg/kg, po for 14 days by hemagglutinination technique; format: functional, organism-based
Mus musculus [8] = assay: Immunopotentiating activity in sheep RBC-immunized BALB/c mouse assessed as increase in isolated splenic B-cell proliferation administered orally for 14 days followed by incubation of isolated splenocytes with LPS for 72 hrs by MTT assay; format: functional
Mus musculus [9] = assay: Immunopotentiating activity in sheep RBC-immunized BALB/c mouse assessed as ratio of CD4-positive splenic T-cells to CD8-positive splenic T-cells at 0.01 mg/kg, po for 14 days by flow cytometry (RVB = 1.56 +/- 0.09); format: functional
Mus musculus [10] = assay: Immunopotentiating activity in sheep RBC-immunized BALB/c mouse assessed as CD4-positive T-cell content in spleen at 0.1 mg/kg, po for 14 days by flow cytometry (reference value: 2.7 +/- 0.12 10^7No_unit); format: functional
Mus musculus [11] = assay: Immunopotentiating activity in sheep RBC-immunized BALB/c mouse assessed as CD4-positive splenic T-cells at 0.1 mg/kg, po for 14 days by flow cytometry (reference value: 20.7 +/- 0.9%); format: functional
Mus musculus [12] = assay: Immunopotentiating activity in sheep RBC-immunized BALB/c mouse assessed as CD4-positive splenic T-cells at 0.01 mg/kg, po for 14 days by flow cytometry (reference value: 20.7 +/- 0.9%); format: functional
Mus musculus [13] = assay: Immunopotentiating activity in sheep RBC-immunized BALB/c mouse assessed as increase in isolated splenic […] proliferation administered orally for 14 days followed by incubation of isolated splenocytes with ConA for 72 hrs by MTT assay; format: functional
Mus musculus [14] = species: Mus musculus; assay: Cytotoxicity in BALB/c mouse splenocytes at 100 ug/ml measured after 72 hrs by MTT assay; format: toxicity; details: splenocyte
Mus musculus [15] = assay: Immunopotentiating activity in sheep RBC-immunized BALB/c mouse assessed as CD4-positive T-cell content in spleen at 0.01 mg/kg, po for 14 days by flow cytometry (reference value: 2.7 +/- 0.12 10^7No_unit); format: functional
Mus musculus [16] = assay: Immunopotentiating activity in sheep RBC-immunized BALB/c mouse assessed as B-cell activation by measuring IgG antibody titer in serum at 0.01 mg/kg, po for 14 days by hemagglutinination technique; format: functional, organism-based
Mus musculus [17] = assay: Immunopotentiating activity in sheep RBC-immunized BALB/c mouse assessed as increase in isolated splenic T-cell proliferation administered orally for 14 days followed by incubation of isolated splenocytes with ConA for 72 hrs by MTT assay; format: functional
Mus musculus [18] = assay: Immunopotentiating activity in sheep RBC-immunized BALB/c mouse assessed as increase in IL4 production in splenocytes administered orally for 14 days followed by incubation with ConA for 48 hrs by ELISA; format: functional, cell-based
Mus musculus [19] = assay: Immunopotentiating activity in sheep RBC-immunized BALB/c mouse assessed as increase in interferon-gamma production in splenocytes administered orally for 14 days followed by incubation with ConA for 48 hrs by ELISA; format: functional, cell-based
Splenic lymphocyte [20] = assay: Immunopotentiating activity in splenic lymphocytes (unknown origin) assessed as effect on proliferation by measuring cell viability pretreated followed by incubation of lymphocytes with ConA for 48 hrs by MTT assay; format: functional, cell-based
Mus musculus [21] = assay: Immunopotentiating activity in sheep RBC-immunized BALB/c mouse assessed as increase in delayed-type hypersensitivity response by measuring left hind foot pad thickness at 0.001 mg/kg, po qd administered 2 hrs post immunization for 7 days measured 24 to 48 hrs post SRBC challenge by spheromicrometer method; format: functional, organism-based
Mus musculus [22] = assay: Immunopotentiating activity in sheep RBC-immunized BALB/c mouse assessed as CD8-positive T-cell content in spleen at 0.01 mg/kg, po for 14 days by flow cytometry (reference value: 1.47 +/- 0.04 10^7No_unit); format: functional
Mus musculus [23] = assay: Immunopotentiating activity in sheep RBC-immunized BALB/c mouse assessed as CD8-positive splenic T-cells at 0.01 mg/kg, po for 14 days by flow cytometry (reference value: 13.3 +/- 0.34%); format: functional
Mus musculus [24] = assay: Immunopotentiating activity in sheep RBC-immunized BALB/c mouse assessed as CD8-positive splenic T-cells at 0.1 mg/kg, po for 14 days by flow cytometry (reference value: 13.3 +/- 0.34%); format: functional
Mus musculus [25] = assay: Immunopotentiating activity in sheep RBC-immunized BALB/c mouse assessed as CD4-positive T-cell content in spleen at 0.001 mg/kg, po for 14 days by flow cytometry (reference value: 2.7 +/- 0.12 10^7No_unit); format: functional
Mus musculus [26] = assay: Immunopotentiating activity in sheep RBC-immunized BALB/c mouse assessed as CD8-positive T-cell content in spleen at 0.1 mg/kg, po for 14 days by flow cytometry (reference value: 1.47 +/- 0.04 10^7No_unit); format: functional
Splenic lymphocyte [27] = assay: Immunopotentiating activity in splenic lymphocytes (unknown origin) assessed as effect on proliferation by measuring cell viability pretreated followed by incubation of lymphocytes with LPS for 48 hrs by MTT assay; format: functional, cell-based
Mus musculus [28] = assay: Immunopotentiating activity in sheep RBC-immunized BALB/c mouse assessed as increase in IL2 production in splenocytes administered orally for 14 days followed by incubation with ConA for 48 hrs by ELISA; format: functional, cell-based
Mus musculus [29] = assay: Immunopotentiating activity in sheep RBC-immunized BALB/c mouse assessed as ratio of CD4-positive splenic T-cells to CD8-positive splenic T-cells at 0.001 mg/kg, po for 14 days by flow cytometry (RVB = 1.56 +/- 0.09); format: functional
Mus musculus [30] = assay: Immunopotentiating activity in sheep RBC-immunized BALB/c mouse assessed as increase in isolated splenic T-cell proliferation administered orally for 14 days followed by incubation of isolated splenocytes with LPS for 72 hrs by MTT assay; format: functional
Mus musculus [31] = assay: Immunopotentiating activity in sheep RBC-immunized BALB/c mouse assessed as CD8-positive splenic T-cells at 0.001 mg/kg, po for 14 days by flow cytometry (reference value: 13.3 +/- 0.34%); format: functional
Mus musculus [32] = assay: Immunopotentiating activity in sheep RBC-immunized BALB/c mouse assessed as ratio of CD4-positive splenic T-cells to CD8-positive splenic T-cells at 0.1 mg/kg, po for 14 days by flow cytometry (RVB = 1.56 +/- 0.09); format: functional
Mus musculus [33] = assay: Immunopotentiating activity in sheep RBC-immunized BALB/c mouse assessed as CD4-positive splenic T-cells at 0.001 mg/kg, po for 14 days by flow cytometry (reference value: 20.7 +/- 0.9%); format: functional
Mus musculus [34] = assay: Immunopotentiating activity in sheep RBC-immunized BALB/c mouse assessed as B-cell activation by measuring IgG antibody titer in serum at 0.001 mg/kg, po for 14 days by hemagglutinination technique; format: functional, organism-based
Mus musculus [35] = assay: Immunopotentiating activity in sheep RBC-immunized BALB/c mouse assessed as B-cell activation by measuring IgM antibody titer in serum at 0.01 mg/kg, po for 14 days measured on day 7 post dose by hemagglutinination technique; format: functional, organism-based
Mus musculus [36] = assay: Immunopotentiating activity in sheep RBC-immunized BALB/c mouse assessed as CD8-positive T-cell content in spleen at 0.001 mg/kg, po for 14 days by flow cytometry (reference value: 1.47 +/- 0.04 10^7No_unit); format: functional
Mus musculus [37] = assay: Immunopotentiating activity in sheep RBC-immunized BALB/c mouse assessed as B-cell activation by measuring IgM antibody titer in serum at 0.001 mg/kg, po for 14 days measured on day 7 post dose by hemagglutinination technique; format: functional, organism-based

O=c1ccc2ccc(OCC3CC(c4ccc([N+](=O)[O-])cc4)=NO3)cc2o1 (stereo unspecified)
Activity (Splenic lymphocyte [1]): Active
Activity (Splenic lymphocyte [2]): Active
Activity (Splenic lymphocyte [3]): Active
Activity (Splenic lymphocyte [4]): Active

COc1ccccc1C1=NOC(COc2ccc3ccc(=O)oc3c2)C1 (stereo unspecified)
Activity (Mus musculus [5]): Active
Activity (Mus musculus [6]): Dose-dependent effect
Activity (Mus musculus [7]): Active
Activity (Mus musculus [8]): Dose-dependent effect
Ratio (Mus musculus [9]): 1.58
Activity (Mus musculus [10]): 1.51 ×10⁷ No_unit
Activity (Mus musculus [11]): 31.1%
Activity (Mus musculus [12]): 24.2%
Activity (Mus musculus [13]): Dose-dependent effect
Activity (Mus musculus [14]): Non-Toxic
Activity (Mus musculus [15]): 1.31 ×10⁷ No_unit
Activity (Mus musculus [16]): Active
Activity (Mus musculus [17]): Dose-dependent effect
Activity (Mus musculus [18]): Dose-dependent effect
Activity (Mus musculus [19]): Dose-dependent effect
Activity (Splenic lymphocyte [20]): Dose-dependent effect
Activity (Mus musculus [21]): Active
Activity (Mus musculus [22]): 1.18 ×10⁷ No_unit
Activity (Mus musculus [23]): 15.3%
Activity (Mus musculus [24]): 18.4%
Activity (Mus musculus [25]): 1.02 ×10⁷ No_unit
Activity (Mus musculus [26]): 1.37 ×10⁷ No_unit
Activity (Splenic lymphocyte [27]): Dose-dependent effect
Activity (Mus musculus [28]): Dose-dependent effect
Ratio (Mus musculus [29]): 1.32
Activity (Mus musculus [30]): Dose-dependent effect
Activity (Mus musculus [31]): 15.4%
Ratio (Mus musculus [32]): 1.69
Activity (Mus musculus [33]): 20.3%
Activity (Mus musculus [34]): Active
Activity (Mus musculus [35]): Active
Activity (Mus musculus [36]): 0.88 ×10⁷ No_unit
Activity (Mus musculus [37]): Active

Cc1ccccc1C1=NOC(COc2ccc3ccc(=O)oc3c2)C1 (stereo unspecified)
Activity (Splenic lymphocyte [20]): Dose-dependent effect
Activity (Splenic lymphocyte [27]): Dose-dependent effect

Cc1ccc(C2=NOC(COc3ccc4ccc(=O)oc4c3)C2)cc1 (stereo unspecified)
Activity (Splenic lymphocyte [20]): Dose-dependent effect
Activity (Splenic lymphocyte [27]): Dose-dependent effect

O=c1ccc2ccc(OCC3CC(c4ccc(Br)cc4)=NO3)cc2o1 (stereo unspecified)
Activity (Splenic lymphocyte [1]): Active
Activity (Splenic lymphocyte [2]): Active
Activity (Splenic lymphocyte [3]): Active
Activity (Splenic lymphocyte [4]): Active

O=c1ccc2ccc(OCC3CC(c4ccc(Cl)cc4)=NO3)cc2o1 (stereo unspecified)
Activity (Splenic lymphocyte [1]): Active
Activity (Splenic lymphocyte [2]): Active
Activity (Splenic lymphocyte [3]): Active
Activity (Splenic lymphocyte [4]): Active

O=c1ccc2ccc(OCC3CC(c4ccc(F)cc4)=NO3)cc2o1 (stereo unspecified)
Activity (Splenic lymphocyte [1]): Active
Activity (Splenic lymphocyte [2]): Active
Activity (Splenic lymphocyte [3]): Active
Activity (Splenic lymphocyte [4]): Active

O=c1ccc2ccc(O)cc2o1
Activity (Splenic lymphocyte [1]): Active
Activity (Splenic lymphocyte [2]): Active
Activity (Splenic lymphocyte [3]): Active
Activity (Splenic lymphocyte [4]): Active

COc1ccc(C2=NOC(COc3ccc4ccc(=O)oc4c3)C2)cc1 (stereo unspecified)
Activity (Mus musculus [5]): Active
Activity (Mus musculus [6]): Dose-dependent effect
Activity (Mus musculus [7]): Active
Activity (Mus musculus [8]): Dose-dependent effect
Ratio (Mus musculus [9]): 1.72
Activity (Mus musculus [10]): 1.85 ×10⁷ No_unit
Activity (Mus musculus [11]): 40.2%
Activity (Mus musculus [12]): 34.2%
Activity (Mus musculus [13]): Dose-dependent effect
Activity (Mus musculus [14]): Non-Toxic
Activity (Mus musculus [15]): 1.61 ×10⁷ No_unit
Activity (Mus musculus [16]): Active
Activity (Mus musculus [17]): Dose-dependent effect
Activity (Mus musculus [18]): Dose-dependent effect
Activity (Mus musculus [19]): Dose-dependent effect
Activity (Splenic lymphocyte [20]): Dose-dependent effect
Activity (Mus musculus [21]): Active
Activity (Mus musculus [22]): 1.35 ×10⁷ No_unit
Activity (Mus musculus [23]): 19.8%
Activity (Mus musculus [24]): 21.6%
Activity (Mus musculus [25]): 1.23 ×10⁷ No_unit
Activity (Mus musculus [26]): 1.48 ×10⁷ No_unit
Activity (Splenic lymphocyte [27]): Dose-dependent effect
Activity (Mus musculus [28]): Dose-dependent effect
Ratio (Mus musculus [29]): 1.32
Activity (Mus musculus [30]): Dose-dependent effect
Activity (Mus musculus [31]): 16.4%
Ratio (Mus musculus [32]): 1.86
Activity (Mus musculus [33]): 30.3%
Activity (Mus musculus [34]): Active
Activity (Mus musculus [35]): Active
Activity (Mus musculus [36]): 1.26 ×10⁷ No_unit
Activity (Mus musculus [37]): Active

O=c1ccc2ccc(OCC3CC(c4cccc5ccccc45)=NO3)cc2o1 (stereo unspecified)
Activity (Splenic lymphocyte [1]): Active
Activity (Splenic lymphocyte [2]): Active
Activity (Splenic lymphocyte [3]): Active
Activity (Splenic lymphocyte [4]): Active

COc1cccc(C2=NOC(COc3ccc4ccc(=O)oc4c3)C2)c1 (stereo unspecified)
Activity (Splenic lymphocyte [20]): Dose-dependent effect
Activity (Splenic lymphocyte [27]): Dose-dependent effect
